One experiment has as its system Sen (XRA) HCA2 cells. Nature of the experiment: Senescent phenotypes of Sen (XRA) HCA2 cells (SA-Bgal, BrdU labeling, 53BP1 foci). Particulars: 500 nM corticosterone or 100 nM cortisol, 7 days. It is filed as cell-based, human. The method, then: Conditioned media from presenescent (Pre) and the control and glucocorticoid-treated Sen (XRA) cells were analyzed by ELISA for IL-6. […] The percentage of presenescent (Pre) and Sen (XRA) cells that express SA-Bgal were scored (upper panel). A representative field corresponding to each condition is also shown (bottom panels). […] The percentage of cells with >2 53BP1 nuclear foci was determined using CELL PROFILER software. At least 200 cells were analyzed per condition.
HCA2 human neonatal foreskin, IMR-90 human fetal lung fibroblasts and T47D human breast cancer cells were obtained and cultured in 3% O2 and 10% CO2 as previously described (Coppe et al., 2008, PLoS Biol. 6:2853-2868; Rodier et al., 2009, Nature Cell Biol. 11:973-979; Coppe et al., 2010, PLoS ONE 5:e9188). Cells were induced to senesce by X-irradiation (10 Gy) or lentiviral expression of oncogenic RAS or MAP kinase kinase 6 (MKK6), as described (Coppe et al., 2008, PLoS Biol. 6:2853-2868; Rodier et al., 2009, Nature Cell Biol. 11:973-979; Freund et al., 2011, EMBO J. 30:1536-1548). Pre-senescent and senescent cells had 24-h BrdU labeling indices of >75% and <10% respectively (Rodier et al., 2009, Nature Cell Biol. 11:973-979); <10% and >70% respectively stained positive for senescence-associated beta-galactosidase activity (Dimri et al., 1995, Proc. Natl. Acad. Sci. USA 92:9363-9367) (Biovision senescence detection kit). HEK293FT packaging cells (Invitrogen) were used to generate lentiviruses. Corticosterone, cortisol and RU-486 were obtained from Sigma-Aldrich.
(In general: Uptake of a labelled nucleoside into DNA is a usual measure of proliferation.)

Experiment [1] has as its system T47D human breast cancer cells. Nature of the experiment: Invasion assay: conditioned media from HCA2 fibroblasts stimulating T47D invasion of basement membrane. In kind it is cell-based. Particulars: HCA2 fibroblasts treated with corticosterone or cortisol for 10 d. The method, then:
T47D human breast cancer cells (120,000 cells/well) were plated atop a layer of Matrigel in the upper chambers of Transwells (BD Biosciences). The lower chambers contained conditioned media from pre-senescent or senescent HCA2 fibroblasts treated with corticosterone or cortisol for 10 d. After 18 h, cells that migrated to the underside of the upper chamber filter were stained and counted, as described (Coppe et al., 2008, PLoS Biol. 6:2853-2868; Coppe et al., 2010, PLoS ONE 5:e9188).

The test system of a further experiment is IL-6. In words: IL-6 ELISA of conditioned media from X-irradiated senescent HCA2 fibroblasts. It is filed as cell-based, human. The settings on record: for IL-6 secretion, varying concentrations: added immediately after irradiation, 6 days. The method, then: To validate glucocorticoids as SASP regulators, they were added within 15 min after irradiation (unless otherwise indicated). For cells induced to senesce by MKK6 or RAS overexpression, glucocorticoid treatment started 16 hours after infection. Glucocorticoids were re-added in fresh media every other day. Six days after irradiation or selection, cells were given serum-free DMEM with or without glucocorticoid for 24 hours; the conditioned media were collected and frozen for ELISAs.
Conditioned media were filtered and stored at −80° C. Cell numbers were determined in every experiment. ELISAs were performed using kits and procedures from PerkinElmer (IL-6 AL223F). Data were normalized and expressed as pg/ml/cell/24 h.
To confirm the ability of corticosterone to suppress senescence-associated IL-6 secretion, fresh HCA2 fibroblast cultures were prepared, and senescence was induced by X-irradiation (10 Gy). Under these conditions, cells undergo growth arrest within 24-48 hours, but require 4-5 days before SASP components are detected in the medium (Coppe et al., 2008, PLoS Biol. 6:2853-2868; Rodier et al., 2009, Nature Cell Biol. 11:973-979; Coppe et al., 2010, PLoS ONE 5:e9188; Freund et al., 2011, EMBO J. 30:1536-1548). Varying concentrations of corticosterone were added immediately after irradiation, and the cells were maintained in the drug for 6 days. On the 6th day, the cells were incubated in serum-free medium with or without corticosterone, the conditioned medium was collected 24 h later, and the medium was assayed for IL-6 by ELISA. […] The ability of corticosterone to suppress IL-6 secretion by senescent cells was not peculiar to HCA2 cells.
A general note: ELISA stands for enzyme-linked immunosorbent assay.

As for `C[C@]12C[C@H](O)[C@H]3[C@@H](CCC4=CC(=O)CC[C@@]43C)[C@@H]1CC[C@@H]2C(=O)CO` [corticosterone], in the experiment with Sen (XRA) HCA2 cells, the “fraction of cells that expressed SA-Bgal” value is listed as “no effect on the fraction of cells that expressed SA-Bgal”, the “number of persistent DNA damage foci (53BP1)” value is on record as “no effect on the number of persistent DNA damage foci” and the “senescence growth arrest (24 h BrdU labeling index)” value is recorded as “maintained their low 24 h BrdU labeling index”. Besides, the “ability of senescent conditioned media to stimulate T47D invasiveness” value in experiment [1] was “near-presenescent levels”. For the same molecule, the “reduction of IL-6 secretion” value in the experiment with IL-6 (20 nM corticosterone) is listed as “approximately 50%”. Also, the “maximal suppression of IL-6 secretion” value with IL-6 (500 nM corticosterone) is above 90%. The “IL-6 secretion, continuous exposure” value with IL-6 (500 nM, continuous exposure for 7 days after irradiation) was “strongly suppressed IL-6 secretion”. In addition, in the experiment with IL-6 (500 nM, pretreatment before X-irradiation, or only 24 hours immediately after irradiation or after establishment of the SASP (7 days)), the “IL-6 secretion, short exposure” value is “had no effect on IL-6 secretion”. For the same molecule, the “IL-6 secretion, varying concentrations” value in the experiment on IL-6 is “decreased IL-6 secretion in a dose-dependent manner”.
Regarding `C[C@]12CCC(=O)C=C1CC[C@@H]1[C@@H]2[C@@H](O)C[C@@]2(C)[C@H]1CC[C@]2(O)C(=O)CO` [cortisol], in the experiment on Sen (XRA) HCA2 cells, the “fraction of cells that expressed SA-Bgal” value is on record as “no effect on the fraction of cells that expressed SA-Bgal”, the “number of persistent DNA damage foci (53BP1)” value was “no effect on the number of persistent DNA damage foci” and the “senescence growth arrest (24 h BrdU labeling index)” value is reported as “maintained their low 24 h BrdU labeling index”. The “ability of senescent conditioned media to stimulate T47D invasiveness” value in experiment [1] was “near-presenescent levels”. Besides, the “reduction of senescence-associated IL-6 secretion” value in the experiment on IL-6 (100 nM cortisol) is above 90%. Besides, in the experiment on IL-6 (Homo sapiens, HCA2, sub-nM concentrations, read-out: concentration reducing senescence-associated IL-6 secretion by 50%), the IC50 is 0.16 to 0.8 nM. For the same molecule, the “IL-6 secretion, varying concentrations” value with IL-6 was “decreased IL-6 secretion in a dose-dependent manner, and was more potent than corticosterone”.

These data come from patent publication US9884065B2, “Inhibiting activity of senescent cells using a glucocorticoid” (Buck Institute for Research on Aging, priority 2011, dated 2018).
